Data as given in patent publication EP1110454A2, “5-Carboxanilido-haloalkylthiazoles as antimicrobial and marine antifouling agents” (ROHM AND HAAS COMPANY, priority 1999, dated 2001).

How the values were obtained:
Assay type in all cases: cell-based
Rhodotorula rubra = experiment: Minimum Inhibitory Concentration (MIC) test, two fold serial dilutions; parameters: R. Rubra M9G: unit not given here; conditions: for R. Rubra M9G: Minimal Salts Media (M9G)
Procedure: (§1) The spectrum of antimicrobial activity of the antimicrobial agents useful in the present invention were determined in Minimum Inhibitory Concentration (MIC) tests. MICs were determined by two fold serial dilutions of a compound in Minimal Salts Media (M9G), Trypticase Soy Broth (TSB) or Tryticase Soy Broth and anionic surfactant (TSBA). The compounds were tested against Aspergillus niger, Rhodotorula rubra, Escherichia coli and Pseudomonas aeruginosa. Results of the MIC tests are shown below.

Escherichia coli = experiment: as above; parameters: unit not given here; conditions: Minimal Salts Media (M9G)
Procedure: as §1

[1] = system: Aspergillus niger, Rhodotorula rubra, Escherichia coli and Pseudomonas aeruginosa; experiment: MIC tests, overall spectrum of antimicrobial activity; conditions: verbal summary of the MIC results of Table 1
Procedure: as §1

Aspergillus niger = experiment: Minimum Inhibitory Concentration (MIC) test, two fold serial dilutions; conditions: Trypticase Soy Broth (TSB)
Procedure: as §1

Row | Compound | R. Rubra M9G (Rhodotorula rubra) | E.Coli M9G (Escherichia coli) | R. Rubra TSB (Rhodotorula rubra; Trypticase Soy Broth (TSB)) | microbicidal activity [1] | A. niger TSB (Aspergillus niger)
1 | O=C(Nc1c(Br)cc(Br)cc1Br)c1sc(C(F)(F)F)nc1C(F)(F)F [Compound 26] | 300 | >300 | – | – | –
2 | O=C(Nc1c(Br)cc(OC(F)(F)F)cc1Br)c1sc(C(F)(F)F)nc1C(F)(F)F [Compound 29] | 300 | >300 | – | – | –
3 | Cc1nc(C(F)(F)F)c(C(=O)Nc2c(Cl)cc(OC(F)(F)F)cc2Cl)s1 [Compound 33] | 300 | 300 | – | – | –
4 | Cc1nc(C(F)F)c(C(=O)Nc2c(Br)cc(Br)cc2Br)s1 [Compound 34] | 300 | 300 | – | – | –
5 | Cc1nc(C(F)F)c(C(=O)Nc2c(Br)cc(OC(F)(F)F)cc2Br)s1 [Compound 35] | 300 | 300 | – | – | –
6 | O=C(Nc1ccc(F)c(F)c1)c1sc(C(Cl)(Cl)Cl)nc1C(F)(F)F [Compound 43] | 30 | >300 | 30 | surprisingly effective at controlling microorganisms | >30
